Measured values published in ChEMBL document CHEMBL3751790, “Novel hydroxyamides and amides containing D-glucopyranose or D-fructose units: Biological assays in MCF-7 and MDST8 cell lines” (Bioorg Med Chem Lett, 2016).
Activity calls are given as the source filed them. No cut-off for these calls is given here.

Columns and labels:
[1] = tested on: MCF7; experiment: Cytotoxicity against human MCF7 cells after 72 hrs by CCK8 assay; format: functional, cell-based
[2] = tested on: MCF7; experiment: Cytotoxicity against human MCF7 cells at 1 x 10^-5 M after 72 hrs by CCK8 assay; format: functional; conditions: for inhibition at 10 µM: MCF7, 72 h
[3] = Cytotoxicity against human MDST8 cells after 72 hrs by CCK8 assay; format: functional, cell-based
[4] = (§1) Cytotoxicity against human MDST8 cells at 1 x 10^-5 M after 72 hrs by CCK8 assay; format: functional; conditions: MDST8, 72 h
[5] = Cytotoxicity against human MDST8 cells at 1 x 10^-8 M after 72 hrs by CCK8 assay; format: functional; conditions: MDST8, 72 h
[6] = tested on: MDST8; experiment: as §1; format: functional
[7] = Homo sapiens, MCF7, 72 h, read-out: IC50
[8] = Homo sapiens, MDST8, 72 h, read-out: IC50

CC(C)(C)[C@@H](CO)NC(=O)[C@H]1OC(O)(CO)[C@@H](O)[C@@H]1O (single isomer, unassigned)
IC50 ([1]; mcf7): Active | inhibition [2]: Active

C=CCOC(=O)[C@H]1O[C@@H](OC(C)=O)[C@H](OC(C)=O)[C@@H](OC(C)=O)[C@@H]1OC(C)=O
IC50 [1, 7]: 4500 nM

O=C(Nc1ccncc1)[C@H]1O[C@@H](O)[C@H](O)[C@@H](O)[C@@H]1O
IC50 [1, 7]: 190 nM

O=C(N[C@H](CO)c1ccccc1)[C@H]1O[C@](O)(CO)[C@@H](O)[C@@H]1O
IC50 ([1]; mcf7): Not Active | IC50 ([3]; mdst8): Not Active

CC(=O)O[C@@H]1O[C@H](C(=O)N[C@H]2CN(Cc3ccccc3)C[C@@H]2NC(=O)[C@H]2O[C@@H](OC(C)=O)[C@H](OC(C)=O)[C@@H](OC(C)=O)[C@@H]2OC(C)=O)[C@@H](OC(C)=O)[C@H](OC(C)=O)[C@H]1OC(C)=O
IC50 [3, 8]: 100 nM

CC(=O)O[C@@H]1O[C@H](C(=O)NCCCBr)[C@@H](OC(C)=O)[C@H](OC(C)=O)[C@H]1OC(C)=O
inhibition at 10 µM [4]: > 90% | inhibition at 0.01 µM [5]: 50% | IC50 ([1]; mcf7): Not Active | IC50 [3, 8]: 100 nM

CC(=O)O[C@@H]1O[C@H](C(=O)NCCO)[C@@H](OC(C)=O)[C@H](OC(C)=O)[C@H]1OC(C)=O
IC50 ([1]; mcf7): Active | IC50 ([3]; mdst8): Not Active | inhibition at 10 µM [2]: > 60%

CC(=O)O[C@@H]1O[C@H](C(=O)N[C@H](CO)Cc2ccccc2)[C@@H](OC(C)=O)[C@H](OC(C)=O)[C@H]1OC(C)=O
IC50 ([1]; mcf7): Not Active | IC50 ([3]; mdst8): Not Active

O=c1[nH]cc(F)c(=O)[nH]1 [FLUOROURACIL]
inhibition at 10 µM [4]: 83% | IC50 [1, 7]: 520 nM | IC50 [3, 8]: 64 nM | inhibition at 10 µM [2]: 60%

CC(=O)O[C@@H]1O[C@H](C(=O)NCCCO)[C@@H](OC(C)=O)[C@H](OC(C)=O)[C@H]1OC(C)=O
IC50 ([1]; mcf7): Active | IC50 ([3]; mdst8): Not Active | inhibition at 10 µM [2]: > 60%

O=C(NCCO)[C@H]1O[C@](O)(CO)[C@@H](O)[C@@H]1O
IC50 ([1]; mcf7): Active | IC50 ([3]; mdst8): Not Active | inhibition at 10 µM [2]: > 60%

CC(C)[C@@H](CO)NC(=O)[C@H]1OC(O)(CO)[C@@H](O)[C@@H]1O (single isomer, unassigned)
inhibition at 10 µM [4]: 80% | IC50 ([3]; mdst8): Active

O=C(NCCCO)[C@H]1O[C@](O)(CO)[C@@H](O)[C@@H]1O
IC50 ([1]; mcf7): Active | IC50 ([3]; mdst8): Not Active | inhibition at 10 µM [2]: > 60%

O=C(N[C@H](CO)Cc1ccccc1)[C@H]1OC(O)(CO)[C@@H](O)[C@@H]1O (single isomer, unassigned)
IC50 ([1]; mcf7): Not Active | IC50 ([3]; mdst8): Not Active

CC(=O)O[C@@H]1O[C@H](C(=O)N[C@H](CO)C(C)C)[C@@H](OC(C)=O)[C@H](OC(C)=O)[C@H]1OC(C)=O
inhibition [6]: Active

CC(=O)O[C@@H]1O[C@H](C(=O)N2CCCC2)[C@@H](OC(C)=O)[C@H](OC(C)=O)[C@H]1OC(C)=O
IC50 [1, 7]: 1000 nM

CC(=O)O[C@@H]1O[C@H](C(=O)N[C@H](CO)c2ccccc2)[C@@H](OC(C)=O)[C@H](OC(C)=O)[C@H]1OC(C)=O
IC50 ([1]; mcf7): Not Active | IC50 ([3]; mdst8): Not Active
